According to ChEMBL document CHEMBL1139174, “Modeling of human ghrelin receptor (hGHS-R1a) in its close state and validation by molecular docking” (Bioorg Med Chem, 2007):
Square brackets hold non-standard residues; d marks the D form. Peptide text beside a SMILES is read from it. d(hPhe) = N[C@H](CCc1ccccc1)C(=O)O; Aib = CC(C)(N)C(=O)O

Target: Growth hormone secretagogue receptor type 1 (Homo sapiens, UniProt Q92847)
Assay: Agonist activity at human GHS-R1
Type: functional
Conditions: not given

Chain of Growth hormone secretagogue receptor type 1 (Q92847 whole entry): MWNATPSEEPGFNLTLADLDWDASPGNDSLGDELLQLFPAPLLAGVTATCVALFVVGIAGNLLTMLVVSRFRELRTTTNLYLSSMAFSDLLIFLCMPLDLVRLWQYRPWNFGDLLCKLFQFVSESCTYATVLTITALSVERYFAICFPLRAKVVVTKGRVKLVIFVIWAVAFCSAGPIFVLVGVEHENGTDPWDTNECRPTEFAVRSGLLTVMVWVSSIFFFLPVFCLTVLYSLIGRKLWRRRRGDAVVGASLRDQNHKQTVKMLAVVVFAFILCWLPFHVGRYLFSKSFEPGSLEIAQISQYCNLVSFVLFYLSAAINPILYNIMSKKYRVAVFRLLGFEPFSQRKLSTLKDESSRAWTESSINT

With CC(C)(N)C(=O)N[C@H](CCCc1ccccc1)C(=O)N1CCC2(CC1)C[S+]([O-])c1ccccc12 (some centres not stated) the “Log EC50” value was -8.6.

Same assay, conditions: read-out: EC50

First: Cc1ccccc1N1CCN(C(=O)[C@@H](CCCc2ccccc2)NC(=O)C(C)(C)N)CC1
Second: CC(C)(N)C(=O)N[C@H](CCCc1ccccc1)C(=O)N1CCN(c2ccccc2NS(C)(=O)=O)CC1
The EC50 of the first is 16-fold higher: 100 nM for the first, 6.3 nM for the second. The second is the more potent here.

CCN(CC)CCN1C(=O)[C@@](O)(c2ccc3ccccc3c2)c2c1cc(C#CCCC(=O)N(C)C)cc2C(F)(F)F and CCN(CC)CCN1C(=O)[C@@](O)(c2ccc3ccccc3c2)c2c1cc(C#CCCC(=O)N1CCOCC1)cc2C(F)(F)F are the same in EC50: 30 nM for the first, 30 nM for the second.

Compared with CC(C)(N)C(=O)N[C@H](CCCc1ccccc1)C(=O)N1CCN(c2ccccc2NS(=O)(=O)CC(=O)O)CC1, COC(=O)CS(=O)(=O)Nc1ccccc1N1CCN(C(=O)[C@@H](CCCc2ccccc2)NC(=O)C(C)(C)N)CC1 is 2-fold higher in EC50: 2.3 nM for the first, 4.5 nM for the second. The first is the more potent here.

Compared with NCCCCNC(=O)[C@@H](Cc1ccc2ccccc2c1)NC(=O)[C@@H](Cc1ccc2ccccc2c1)NC(=O)C1CCNCC1, O=C(N[C@H](Cc1ccc2ccccc2c1)C(=O)N[C@@H](CO)Cc1ccc2ccccc2c1)C1CCNCC1 is 9.4-fold lower in EC50: 17 nM for the first, 1.8 nM for the second.

Going from CCN(CC)CCN1C(=O)[C@@](O)(c2ccc3ccccc3c2)c2c1cc(C(N)=O)cc2C(F)(F)F to CCN(CC)CCN1C(=O)[C@@](O)(c2ccc3ccccc3c2)c2c(Br)cccc21, the EC50 rises from 18 nM to 77 nM (4.3-fold).

Compared with NCC(O)CNC(=O)[C@@H](Cc1cccc2ccccc12)NC(=O)CCCN1C(=O)CCSc2ccccc21 (some centres not stated), NCCNC(=O)[C@@H](Cc1cccc2ccccc12)NC(=O)CCN1C(=O)CCS(=O)(=O)c2ccccc21 is 10-fold higher in EC50: 1 nM for the first, 10 nM for the second. The first is the more potent here.

Going from CNC(C)(C)C/C=C/C(=O)N(C)[C@H](Cc1ccc2ccccc2c1)C(=O)N(C)CCc1ccccc1 to O=C(N[C@H](Cc1ccc2ccccc2c1)C(=O)N[C@@H](CO)Cc1c[nH]c2ccccc12)C1CCNCC1, the EC50 rises from 3 nM to 10 nM (3.3-fold).

Compared with CC(C)S(=O)(=O)Nc1ccccc1N1CCN(C(=O)[C@@H](CCCc2ccccc2)NC(=O)C(C)(C)N)CC1, CCNC(=O)[C@]1(Cc2ccccc2)CCCN(C(=O)[C@@H](Cc2c[nH]c3ccccc23)NC(=O)C(C)(C)N)C1 is 3.5-fold lower in EC50: 2.8 nM for the first, 0.8 nM for the second. The second is the more potent here.

Going from CCOC(=O)[C@@H](CCc1ccccc1)NC(=O)[C@@H](Cc1c[nH]c2ccccc12)NC(=O)C(C)(C)N (H-[Aib]-[dW]-[d(hPhe)]-OEt) to CCOC(=O)[C@]1(Cc2ccccc2)CCCN(C(=O)[C@@H](Cc2c[nH]c3ccccc23)NC(=O)C(C)(C)N)C1, the EC50 falls from 3 nM to 1.6 nM (1.9-fold).

NC(=O)[C@@H](NC(=O)[C@@H](Cc1ccc2ccccc2c1)NC(=O)[C@@H](Cc1ccc2ccccc2c1)NC(=O)C1CCNCC1)c1ccccc1 showed an EC50 of 0.28 nM.

Same assay, conditions: read-out: Log EC50 (converted)

Compared with Cc1ccccc1N1CCN(C(=O)[C@@H](CCCc2ccccc2)NC(=O)C(C)(C)N)CC1, NCC(O)CNC(=O)[C@@H](Cc1cccc2ccccc12)NC(=O)CCCN1C(=O)CCSc2ccccc21 (some centres not stated) is 7-fold lower in EC50: 14.1 nM for the first, 2 nM for the second.
